In ChEMBL document CHEMBL3826929, “Discovery and Preclinical Evaluation of BMS-711939, an Oxybenzylglycine Based PPARα Selective Agonist” (ACS Med Chem Lett, 2016):

Columns and labels:
HEK293 = experiment: Selectivity ratio of EC50 for Gal4-tagged human PPAR-gamma expressed in HEK cells to EC50 for Gal4-tagged human PPAR-alpha expressed in HEK cells; assay type: cell-based
[1] = target: T1, Peroxisome proliferator-activated receptor gamma (Homo sapiens, UniProt P37231); experiment: Agonist activity at Gal4-tagged human PPAR-gamma expressed in HEK cells by transactivation assay; assay type: cell-based, HEK293
T1 sequence (P37231 whole entry): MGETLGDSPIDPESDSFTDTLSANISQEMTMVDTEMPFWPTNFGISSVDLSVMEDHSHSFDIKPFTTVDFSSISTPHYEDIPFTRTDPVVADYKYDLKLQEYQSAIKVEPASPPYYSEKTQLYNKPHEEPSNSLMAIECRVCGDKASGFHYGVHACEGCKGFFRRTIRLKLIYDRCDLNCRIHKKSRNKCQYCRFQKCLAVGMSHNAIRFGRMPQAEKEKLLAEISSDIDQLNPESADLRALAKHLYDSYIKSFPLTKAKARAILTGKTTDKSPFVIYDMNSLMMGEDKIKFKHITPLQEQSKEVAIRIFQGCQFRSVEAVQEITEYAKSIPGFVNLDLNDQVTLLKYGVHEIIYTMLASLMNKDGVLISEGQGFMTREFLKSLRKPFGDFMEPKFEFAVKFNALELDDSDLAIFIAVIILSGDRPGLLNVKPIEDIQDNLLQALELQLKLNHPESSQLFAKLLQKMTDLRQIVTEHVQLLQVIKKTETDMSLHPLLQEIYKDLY

[2] = target: T2, Peroxisome proliferator-activated receptor alpha (Homo sapiens) (UniProt Q07869); experiment: Intrinsic activity at PPAR-alpha (unknown origin) relative to fenofibric acid
T2 sequence (whole entry): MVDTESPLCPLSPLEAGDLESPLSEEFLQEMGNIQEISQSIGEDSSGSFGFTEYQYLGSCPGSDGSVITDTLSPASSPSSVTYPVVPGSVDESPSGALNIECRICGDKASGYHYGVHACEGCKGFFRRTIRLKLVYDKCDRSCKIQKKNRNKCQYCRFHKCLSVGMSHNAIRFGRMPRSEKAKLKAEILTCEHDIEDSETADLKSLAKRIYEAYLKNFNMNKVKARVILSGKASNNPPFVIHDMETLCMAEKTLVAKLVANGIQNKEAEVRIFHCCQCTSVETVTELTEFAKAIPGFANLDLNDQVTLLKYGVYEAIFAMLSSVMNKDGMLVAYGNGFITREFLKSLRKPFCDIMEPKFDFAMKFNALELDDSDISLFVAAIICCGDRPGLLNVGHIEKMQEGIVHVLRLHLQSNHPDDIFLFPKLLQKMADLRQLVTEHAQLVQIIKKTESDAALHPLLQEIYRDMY

[3] = target: T3, Peroxisome proliferator-activated receptor alpha (Homo sapiens, UniProt Q07869); experiment: Agonist activity at Gal4-tagged human PPAR-alpha expressed in HEK cells by transactivation assay; assay type: cell-based, HEK293
T3 sequence (Q07869 whole entry): T2 sequence (whole entry)

Syrian golden hamster [4] = experiment: Increase in liver cholesterol level in high fat-diet fed syrian golden hamster model of dyslipidemia at 1 mg/kg administered qd through oral gavage measured after 21 days by FPLC analysis relative to control; assay type: functional, Mesocricetus auratus
Syrian golden hamster [5] = experiment: Decrease in plasma triglyceride level in high fat-diet fed syrian golden hamster model of dyslipidemia at 1 mg/kg administered qd through oral gavage measured after 21 days by FPLC analysis relative to control; assay type: functional, Mesocricetus auratus; parameters: scale not given: the % may be the effect or the level left
Syrian golden hamster [6] = experiment: Decrease in plasma LDL cholesterol level in high fat-diet fed syrian golden hamster model of dyslipidemia administered qd through oral gavage measured after 21 days by FPLC analysis relative to control; assay type: functional, organism-based; conditions: Mesocricetus auratus
Syrian golden hamster [7] = experiment: Decrease in liver cholesterol level in high fat-diet fed syrian golden hamster model of dyslipidemia at 10 mg/kg administered qd through oral gavage measured after 21 days by FPLC analysis relative to control; assay type: functional, Mesocricetus auratus; parameters: scale not given: the % may be the effect or the level left
Syrian golden hamster [8] = experiment: Decrease in plasma LDL cholesterol level in high fat-diet fed syrian golden hamster model of dyslipidemia at 10 mg/kg administered qd through oral gavage measured after 21 days by FPLC analysis relative to control; assay type: functional, Mesocricetus auratus; parameters: scale not given: the % may be the effect or the level left
Syrian golden hamster [9] = experiment: Decrease in plasma triglyceride level in high fat-diet fed syrian golden hamster model of dyslipidemia at 3 mg/kg administered qd through oral gavage measured after 21 days by FPLC analysis relative to control; assay type: functional, Mesocricetus auratus; parameters: scale not given: the % may be the effect or the level left
Syrian golden hamster [10] = experiment: Decrease in plasma triglyceride level in high fat-diet fed syrian golden hamster model of dyslipidemia at 10 mg/kg administered qd through oral gavage measured after 21 days by FPLC analysis relative to control; assay type: functional, Mesocricetus auratus; parameters: scale not given: the % may be the effect or the level left
Syrian golden hamster [11] = experiment: Decrease in plasma LDL cholesterol level in high fat-diet fed syrian golden hamster model of dyslipidemia at 3 mg/kg administered qd through oral gavage measured after 21 days by FPLC analysis relative to control; assay type: functional, Mesocricetus auratus; parameters: scale not given: the % may be the effect or the level left
Syrian golden hamster [12] = experiment: Decrease in liver triglyceride level in high fat-diet fed syrian golden hamster model of dyslipidemia administered qd through oral gavage measured after 21 days by FPLC analysis; assay type: functional, organism-based; conditions: Mesocricetus auratus
Syrian golden hamster [13] = experiment: Decrease in liver triglyceride level in high fat-diet fed syrian golden hamster model of dyslipidemia at 10 mg/kg administered qd through oral gavage measured after 21 days by FPLC analysis relative to control; assay type: functional, Mesocricetus auratus; parameters: scale not given: the % may be the effect or the level left
Syrian golden hamster [14] = experiment: Decrease in liver cholesterol level in high fat-diet fed syrian golden hamster model of dyslipidemia at 1 mg/kg administered qd through oral gavage measured after 21 days by FPLC analysis relative to control; assay type: functional, Mesocricetus auratus; parameters: scale not given: the % may be the effect or the level left
Syrian golden hamster [15] = experiment: Decrease in liver triglyceride level in high fat-diet fed syrian golden hamster model of dyslipidemia at 3 mg/kg administered qd through oral gavage measured after 21 days by FPLC analysis relative to control; assay type: functional, Mesocricetus auratus; parameters: scale not given: the % may be the effect or the level left
Syrian golden hamster [16] = experiment: Decrease in liver triglyceride level in high fat-diet fed syrian golden hamster model of dyslipidemia at 1 mg/kg administered qd through oral gavage measured after 21 days by FPLC analysis relative to control; assay type: functional, Mesocricetus auratus; parameters: scale not given: the % may be the effect or the level left
Syrian golden hamster [17] = experiment: Effect on plasma LDL cholesterol level in high fat-diet fed syrian golden hamster model of dyslipidemia at 1 mg/kg administered qd through oral gavage measured after 21 days by FPLC analysis (reference value: 91.7 +/- 8.1 mg/dl); assay type: functional, Mesocricetus auratus
Syrian golden hamster [18] = experiment: Decrease in liver cholesterol level in high fat-diet fed syrian golden hamster model of dyslipidemia at 3 mg/kg administered qd through oral gavage measured after 21 days by FPLC analysis relative to control; assay type: functional, Mesocricetus auratus; parameters: scale not given: the % may be the effect or the level left
[19] = target: T3, Peroxisome proliferator-activated receptor alpha; experiment: Binding affinity to human GST-tagged PPAR-alpha LBD expressed in Escherichia coli BL21 (DE3) PlysS after 30 mins in presence of fluorescein ligand FLA-A by fluorescence polarization assay
[20] = target: T1, Peroxisome proliferator-activated receptor gamma; experiment: Binding affinity to human GST-tagged PPAR-gamma LBD expressed in Escherichia coli BL21 after 30 mins in presence of fluorescein ligand FLA-A by fluorescence polarization assay
Mus musculus [21] = experiment: Increase in HDL cholesterol level in transgenic mouse expressing human ApoA1 at 100 mg/kg administered qd through oral gavage measured after 10 days relative to vehicle control; assay type: functional
Mus musculus [22] = experiment: Decrease in triglyceride level in transgenic mouse expressing human ApoA1 at 100 mg/kg administered qd through oral gavage measured after 10 days relative to vehicle control; assay type: functional; parameters: scale not given: the % may be the effect or the level left
Mus musculus [23] = experiment: Increase in ApoA1 level in transgenic mouse expressing human ApoA1 at 100 mg/kg administered qd through oral gavage measured after 10 days relative to vehicle-treated control; assay type: functional

Row | Structure (SMILES) | Ratio EC50 (HEK293) | EC50 [1] [nM] | Intrinsic activity [2] [%] | EC50 [3] [nM] | also measured
1 | Cc1oc(-c2ccc(Cl)cc2)nc1COc1ccc(F)c(CN(CC(=O)O)C(=O)OCCCF)c1 | 413 | 4380 | > 50 | 10.6 | 
2 | Cc1oc(-c2ccc(Cl)cc2)nc1COc1ccc(F)c(CN(CC(=O)O)C(=O)OCC(C)C)c1 | 666 | 1500 | > 50 | 2.3 | 
3 | CCCOC(=O)N(CC(=O)O)Cc1cc(OCc2nc(-c3ccc(Cl)cc3)oc2C)ccc1F | 594 | 2010 | > 50 | 3.4 | 
4 | CCOC(=O)N(CC(=O)O)Cc1cc(OCc2nc(-c3ccc(Cl)cc3)oc2C)ccc1F | 1080 | 4270 | > 50 | 4 | 
5 | COC(=O)N(CC(=O)O)Cc1cccc(OCc2nc(-c3ccc(Cl)cc3)oc2C)c1 |  |  |  |  | Activity (Syrian golden hamster [4]): 22%; Activity (Syrian golden hamster [5]): 40%; Activity (Syrian golden hamster [6]): Dose-dependent effect; Activity (Syrian golden hamster [7]): 40.8%; Activity (Syrian golden hamster [8]): 60%; Activity (Syrian golden hamster [9]): 45%; Activity (Syrian golden hamster [10]): 77%; Activity (Syrian golden hamster [11]): 46%; Activity (Syrian golden hamster [12]): Dose-dependent effect; Activity (Syrian golden hamster [13]): 23%; Activity (Syrian golden hamster [14]): -22%; Activity (Syrian golden hamster [15]): 17%; Activity (Syrian golden hamster [16]): 6%; Activity (Syrian golden hamster [17]): 89.3 mg/dL; Activity (Syrian golden hamster [18]): 15.4%
6 | COC(=O)N(CC(=O)O)Cc1cc(OCc2nc(-c3ccc(F)cc3)oc2C)ccc1F | 691 | 10000 | > 50 | 14.5 | 
7 | COC(=O)N(CC(=O)O)Cc1cc(OCc2nc(-c3ccc(C(C)(C)C)cc3)oc2C)ccc1F | 154 | 414 | > 50 | 2.7 | 
8 | COC(=O)N(CC(=O)O)Cc1cc(OCc2nc(-c3ccc(OC(F)(F)F)cc3)oc2C)ccc1F | 556 | 2380 | > 50 | 4.3 | 
9 | Cc1ccc(OC(=O)N(CC(=O)O)Cc2cc(OCc3nc(-c4ccc(Cl)cc4)oc3C)ccc2F)cc1 | 224 | 1260 | > 50 | 5.6 | 
10 | COC(=O)N(CC(=O)O)Cc1cc(OCc2nc(-c3ccccc3)oc2C)ccc1F | 146 | 8610 | > 50 | 59 | 
11 | COC(=O)N(CC(=O)O)Cc1cc(OCc2nc(-c3ccc(S(C)(=O)=O)cc3)oc2C)ccc1F |  | > 25000 | > 50 | > 2500 | 
12 | COC(=O)N(CC(=O)O)[C@@H](C)c1cccc(OCc2nc(-c3ccc(Cl)cc3)oc2C)c1 | 332 | 2860 | > 50 | 8.6 | IC50 [19]: 671 nM; IC50 [20]: > 15000 nM
13 | COC(=O)N(CC(=O)O)Cc1ccc(F)c(OCc2nc(-c3ccc(Cl)cc3)oc2C)c1 | 98 | 9170 | > 50 | 94 | IC50 [19]: 1560 nM; IC50 [20]: > 15000 nM
14 | COC(=O)N(CC(=O)O)Cc1cc(F)cc(OCc2nc(-c3ccc(Cl)cc3)oc2C)c1 | 157 | 2820 | > 50 | 18 | IC50 [19]: 1340 nM; IC50 [20]: > 15000 nM
15 | CC(C)OC(=O)C(C)(C)Oc1ccc(C(=O)c2ccc(Cl)cc2)cc1 [FENOFIBRATE] |  |  |  |  | Activity (Mus musculus [21]): 88%; Activity (Mus musculus [22]): 32.5%; Activity (Mus musculus [23]): 665%
16 | COc1ccc(OC(=O)N(CC(=O)O)Cc2cc(OCc3nc(-c4ccc(Cl)cc4)oc3C)ccc2F)cc1 | 160 | 1090 | > 50 | 6.8 | 
17 | COC(=O)N(CC(=O)O)Cc1cc(OCc2nc(-c3ccc(C(F)(F)F)cc3)oc2C)ccc1F | 566 | 2060 | > 50 | 3.6 | 
18 | COC(=O)N(CC(=O)O)Cc1cc(OCc2nc(-c3ccc(C)cc3)oc2C)ccc1F | 787 | 2180 | > 50 | 2.8 | 
19 | CCCCOC(=O)N(CC(=O)O)Cc1cc(OCc2nc(-c3ccc(Cl)cc3)oc2C)ccc1F | 435 | 1240 | > 50 | 2.8 | 
